Reference: paper PMC4527756 (Bioorganic & medicinal chemistry, 2015)
Read-outs that look alike come from different tables or passages of the source.

Experiments:
[1] = molecular target: (α1)2β1γδ ("muscle type") nAChR (Tetronarce californica, UniProt P02710+P02714+P02718); experiment: radioligand binding assay, muscle type nAChR; parameters: species or system Torpedo californica
[2] = molecular target: α4β2* nAChR (Rattus norvegicus, UniProt P09483+P12390); experiment: radioligand binding assay, α4β2* nAChR; parameters: species or system Sprague-Dawley rat; settings: for Measured activity scale: class of measured α4β2* Ki; for affinity for nAChR subtypes (in words): α4β2* and other nAChR subtypes tested
α4β2* nAChR (Rattus norvegicus, UniProt P09483+P12390), sequence (P09483 31-630): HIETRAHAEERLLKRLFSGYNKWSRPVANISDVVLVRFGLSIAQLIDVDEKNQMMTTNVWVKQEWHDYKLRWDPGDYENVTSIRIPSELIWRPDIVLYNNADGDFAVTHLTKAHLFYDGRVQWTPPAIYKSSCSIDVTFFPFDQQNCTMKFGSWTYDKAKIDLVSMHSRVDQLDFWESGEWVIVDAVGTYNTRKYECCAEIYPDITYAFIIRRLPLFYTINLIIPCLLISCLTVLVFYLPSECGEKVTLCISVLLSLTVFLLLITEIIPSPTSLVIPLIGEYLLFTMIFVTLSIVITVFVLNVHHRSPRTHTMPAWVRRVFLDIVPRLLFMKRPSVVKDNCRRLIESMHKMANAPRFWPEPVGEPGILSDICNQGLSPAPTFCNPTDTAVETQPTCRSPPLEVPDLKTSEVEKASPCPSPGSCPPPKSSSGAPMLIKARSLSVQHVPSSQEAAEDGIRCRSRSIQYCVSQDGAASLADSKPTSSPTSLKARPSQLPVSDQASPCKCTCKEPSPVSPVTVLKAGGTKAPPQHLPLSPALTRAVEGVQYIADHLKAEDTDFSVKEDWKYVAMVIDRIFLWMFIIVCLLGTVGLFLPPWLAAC
α4β2* nAChR (Rattus norvegicus, UniProt P09483+P12390), sequence (P12390 25-500): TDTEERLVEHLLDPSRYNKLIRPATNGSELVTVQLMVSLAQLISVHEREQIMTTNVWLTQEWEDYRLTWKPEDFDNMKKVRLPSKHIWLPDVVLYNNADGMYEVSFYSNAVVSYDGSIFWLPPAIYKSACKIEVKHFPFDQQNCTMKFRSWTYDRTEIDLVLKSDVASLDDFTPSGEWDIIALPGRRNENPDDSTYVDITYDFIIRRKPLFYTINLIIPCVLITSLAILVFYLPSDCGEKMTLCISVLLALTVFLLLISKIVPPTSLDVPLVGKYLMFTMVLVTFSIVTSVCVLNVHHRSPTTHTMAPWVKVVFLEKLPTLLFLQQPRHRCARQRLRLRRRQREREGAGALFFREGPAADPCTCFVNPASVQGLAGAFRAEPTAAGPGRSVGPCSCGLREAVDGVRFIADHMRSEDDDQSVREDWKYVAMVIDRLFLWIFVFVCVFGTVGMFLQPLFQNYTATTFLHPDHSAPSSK

[3] = tested on: mouse tail suspension test; settings: cited from earlier work
[4] = tested on: α4β2* nAChRs; settings: cited from earlier work
[5] = molecular target: α7* nAChR (Rattus norvegicus, UniProt Q05941); experiment: radioligand binding assay, α7* nAChR; parameters: species or system Sprague-Dawley rat
α7* nAChR, sequence (Q05941 23-502): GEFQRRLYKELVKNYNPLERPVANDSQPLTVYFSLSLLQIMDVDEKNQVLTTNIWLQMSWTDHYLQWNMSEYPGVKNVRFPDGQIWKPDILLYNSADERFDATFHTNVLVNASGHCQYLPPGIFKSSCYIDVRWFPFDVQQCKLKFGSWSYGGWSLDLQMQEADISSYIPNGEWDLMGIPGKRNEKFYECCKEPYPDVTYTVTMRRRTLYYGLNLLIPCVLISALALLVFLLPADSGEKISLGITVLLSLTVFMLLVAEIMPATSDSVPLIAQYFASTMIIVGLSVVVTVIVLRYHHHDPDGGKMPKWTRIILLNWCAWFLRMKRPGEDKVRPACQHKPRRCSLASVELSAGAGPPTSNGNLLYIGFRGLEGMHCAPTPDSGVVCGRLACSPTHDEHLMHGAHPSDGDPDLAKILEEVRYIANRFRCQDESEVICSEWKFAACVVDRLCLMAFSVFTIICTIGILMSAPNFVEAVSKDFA

[6] = tested on: α4β2* nAChR; settings: [3H]cytisine, cited from earlier work; for Ki: read-out: α4β2* Ki
[7] = molecular target: α4β2* nAChR; settings: read-out: α4β2* Ki; cited from earlier work
[8] = molecular target: α3β4* nAChR (Sus scrofa, UniProt A0A287A7Z4+O18764); experiment: radioligand binding assay, α3β4* nAChR; parameters: species or system pig
[9] = tested on: α7 nAChR; settings: read-out: α7 nAChR IC50; selective α7 nAChR agonist; cited from earlier work
[10] = tested on: mouse tail-flick test; settings: cited from earlier work

(α1)2β1γδ ("muscle type") nAChR, sequence (P02718 22-522): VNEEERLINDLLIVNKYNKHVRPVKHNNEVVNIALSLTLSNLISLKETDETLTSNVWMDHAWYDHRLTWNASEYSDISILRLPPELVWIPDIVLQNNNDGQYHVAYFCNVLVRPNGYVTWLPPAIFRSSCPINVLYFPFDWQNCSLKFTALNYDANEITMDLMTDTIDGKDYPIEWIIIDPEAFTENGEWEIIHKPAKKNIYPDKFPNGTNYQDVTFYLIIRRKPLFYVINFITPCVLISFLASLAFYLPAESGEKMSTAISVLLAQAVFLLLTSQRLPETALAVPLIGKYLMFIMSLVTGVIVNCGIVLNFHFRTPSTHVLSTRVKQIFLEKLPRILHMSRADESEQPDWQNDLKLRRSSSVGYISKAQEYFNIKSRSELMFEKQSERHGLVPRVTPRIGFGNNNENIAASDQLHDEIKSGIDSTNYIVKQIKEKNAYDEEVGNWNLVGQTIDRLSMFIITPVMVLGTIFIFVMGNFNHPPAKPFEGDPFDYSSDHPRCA
(α1)2β1γδ ("muscle type") nAChR, sequence (P02714 18-506): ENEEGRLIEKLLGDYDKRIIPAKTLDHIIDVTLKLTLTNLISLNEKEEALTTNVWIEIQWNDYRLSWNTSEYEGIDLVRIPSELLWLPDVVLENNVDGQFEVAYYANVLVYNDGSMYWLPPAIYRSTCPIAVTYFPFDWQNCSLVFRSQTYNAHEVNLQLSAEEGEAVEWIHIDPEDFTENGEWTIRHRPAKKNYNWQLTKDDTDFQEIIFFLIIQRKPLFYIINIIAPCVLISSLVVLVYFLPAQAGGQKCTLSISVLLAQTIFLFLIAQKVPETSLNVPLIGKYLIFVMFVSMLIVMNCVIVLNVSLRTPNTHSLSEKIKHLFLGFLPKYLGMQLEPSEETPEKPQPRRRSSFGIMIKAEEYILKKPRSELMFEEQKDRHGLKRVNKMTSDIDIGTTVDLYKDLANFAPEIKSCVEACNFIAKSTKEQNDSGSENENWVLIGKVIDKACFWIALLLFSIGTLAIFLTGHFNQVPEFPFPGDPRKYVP
(α1)2β1γδ ("muscle type") nAChR, sequence (P02710 25-461): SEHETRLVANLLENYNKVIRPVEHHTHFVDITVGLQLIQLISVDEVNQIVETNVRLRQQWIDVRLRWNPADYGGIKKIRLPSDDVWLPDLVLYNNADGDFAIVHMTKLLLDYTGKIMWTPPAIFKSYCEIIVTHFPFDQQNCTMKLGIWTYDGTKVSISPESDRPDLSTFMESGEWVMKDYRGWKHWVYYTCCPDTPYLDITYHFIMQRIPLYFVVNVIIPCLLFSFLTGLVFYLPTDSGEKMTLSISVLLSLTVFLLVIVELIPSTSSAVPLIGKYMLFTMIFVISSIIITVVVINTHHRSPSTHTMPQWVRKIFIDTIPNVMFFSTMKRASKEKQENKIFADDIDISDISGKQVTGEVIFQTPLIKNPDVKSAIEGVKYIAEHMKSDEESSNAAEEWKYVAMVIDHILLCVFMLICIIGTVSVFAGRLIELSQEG
(α1)2β1γδ ("muscle type") nAChR, sequence (P02712 25-493, further chain): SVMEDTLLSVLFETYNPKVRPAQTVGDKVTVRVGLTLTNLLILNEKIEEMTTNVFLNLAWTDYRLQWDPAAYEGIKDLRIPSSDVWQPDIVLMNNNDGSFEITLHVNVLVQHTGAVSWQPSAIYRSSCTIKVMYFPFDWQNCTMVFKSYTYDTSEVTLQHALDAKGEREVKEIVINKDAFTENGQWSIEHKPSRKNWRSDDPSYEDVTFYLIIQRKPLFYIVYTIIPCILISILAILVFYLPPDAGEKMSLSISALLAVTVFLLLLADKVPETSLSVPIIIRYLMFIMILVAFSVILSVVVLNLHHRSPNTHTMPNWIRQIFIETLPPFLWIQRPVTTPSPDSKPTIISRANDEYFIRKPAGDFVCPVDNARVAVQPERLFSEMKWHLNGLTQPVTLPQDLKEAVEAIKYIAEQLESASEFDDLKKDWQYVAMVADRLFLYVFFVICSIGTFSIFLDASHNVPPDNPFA

Which Ki [1] does the source give for `CN(C)CCOc1cc(N2CC3CNCC(C3)C2)cc(F)c1F` [Compound 17c, 2-(5-(3,7-diazabicyclo[3.3.1]nonan-3-yl)-2,3-difluorophenoxy)-N,N-dimethylethanamine] here?
The Ki was over 1000 nM.

For `CN(C)CCOc1cncc(N2CCCCC2)c1` [Compound 24, N,N-dimethyl-2-{[5-(piperidin-1-yl)pyridin-3-yl]oxy}ethanamine], which Measured activity scale [2] is on record?
Its Measured activity scale is “+ (inactive +, Ki > 1,000 nM)”.

What about the “affinity for nAChR subtypes (in words)” value [2] of the same molecule?
Its value is “complete loss of affinity”.

Which results are given for `CN(C)CCOc1cncc(N2CC3CNCC(C3)C2)c1` [Compound 17a, 2-((5-(3,7-diazabicyclo[3.3.1]nonan-3-yl)pyridin-3-yl)oxy)-N,N-dimethylethanamine]?
effect in the mouse tail suspension test (in words) [3]: efficacy in the mouse tail suspension test; functional activity for α4β2* nAChRs (in words) [4]: partial agonist activity; Ki [1]: > 1000 nM; Measured activity scale [2]: +++ (highly active +++, Ki < 150 nM)

Which “interaction with α7* nAChR (in words)” value [5] does the source give for `CN(C)CCOc1cncc(N2CCC2)c1` [Compound 22, 2-{[5-(azetidin-1-yl)pyridin-3-yl]oxy}-N,N-dimethylethanamine] here?
Its value is “no activity”.

What about the Measured activity scale [2] of the same molecule?
Its Measured activity scale is “++ (moderately active ++, 150 nM < Ki < 1,000 nM)”.

For `CN1CCCN(c2cccnc2)CC1` [Compound 12b], which IC50 ([6]; read-out: α4β2* (IC50), printed as IC50 in Ki column) is on record?
Its IC50 is 150 nM.

For `CN1CCN(c2cccnc2)CC1` [Compound 13b], which Ki ([6]; ref 26) is on record?
The Ki was 90 nM.

Which Ki [1] does the source give for `CN(C)CCOc1cc(F)cc(N2CC3CNCC(C3)C2)c1` [Compound 17b, 2-(3-(3,7-diazabicyclo[3.3.1]nonan-3-yl)-5-fluorophenoxy)-N,N-dimethylethanamine] here?
Its Ki is over 1000 nM.

What does the source list for `CN(C)CCOc1cncc(N2CCCNCC2)c1` [Compound 18a, 2-((5-(1,4-diazepan-1-yl)pyridin-3-yl)oxy)-N,N-dimethylethanamine]?
Ki [1]: > 1000 nM; Measured activity scale [2]: +++ (highly active +++, Ki < 150 nM)

What does the source list for `CN(C)CCOc1cncc(N2CCCC2)c1` [Compound 23, N,N-dimethyl-2-{[5-(pyrrolidin-1-yl)pyridin-3-yl]oxy}ethanamine]?
Measured activity scale [2]: + (inactive +, Ki > 1,000 nM); affinity for nAChR subtypes (in words) [2]: complete loss of affinity

What does the source list for `CN(C)CCOc1cncc(N2CCN(C)CC2)c1` [Compound 21a, N,N-dimethyl-2-{[5-(4-methylpiperazin-1-yl)pyridin-3-yl]oxy}ethanamine]?
Ki [1]: > 1000 nM; Measured activity scale [2]: +++ (highly active +++, Ki < 150 nM)

With `CN(C)CCOc1cncc(N2CCC(O)CC2)c1` [Compound 26, 1-(5-(2-(dimethylamino)ethoxy)pyridin-3-yl)piperidin-4-ol] as the molecule, how does the “interaction with α7* nAChR (in words)” value [5] read?
The value was “no activity”.

And the Measured activity scale [2]?
The Measured activity scale was “++ (moderately active ++, 150 nM < Ki < 1,000 nM)”.

Which Ki [7] does the source give for `CN1[C@@H](CC(=O)c2ccccc2)CCC[C@H]1C[C@H](O)c1ccccc1` [Lobeline 1, lobeline] here?
Its Ki is 4 to 30 nM.

For `c1cncc(N2CCNCC2)c1` [Compound 13a], which Ki ([6]; ref 26) is on record?
The Ki was 90 nM.

Which results are given for `CN(C)CCOc1cncc(-c2cncc(OCCN(C)C)c2)c1` [Compound 10, 2,2′-([3,3′-bipyridine]-5,5′-diylbis(oxy))bis(N,N-dimethylethanamine)]?
interaction with α7* nAChR (in words) [5]: no interaction; interaction with α3β4* nAChR (in words) [8]: no interaction; fold decreased α4β2* affinity in comparison with single entity 9 ([2]; versus compound 9): approximately nine-fold

Which Measured activity scale [2] does the source give for `CN(C)CCOc1cncc(N2CCOCC2)c1` [Compound 25, N,N-dimethyl-2-{[5-(morpholin-4-yl)pyridin-3-yl]oxy}ethanamine] here?
The Measured activity scale was “+ (inactive +, Ki > 1,000 nM)”.

And the “affinity for nAChR subtypes (in words)” value [2]?
Its value is “complete loss of affinity”.

Which IC50 [9] does the source give for `CCN(CC)CCOc1ccc2c(c1)C(=O)c1cc(OCCN(CC)CC)ccc1-2` [tilorone 8, tilorone] here?
Its IC50 is 110 nM.

What does the source list for `CN(C)CCOc1cncc(N2CCCN(C)CC2)c1` [Compound 19a, N,N-dimethyl-2-((5-(4-methyl-1,4-diazepan-1-yl)pyridin-3-yl)oxy)ethanamine]?
Ki [2]: 6.9 nM; Measured activity scale [2]: ++ (moderately active ++, 150 nM < Ki < 1,000 nM)

Which results are given for `CN(C)CCOc1cccnc1` [Compound 9, N,N-dimethyl-2-(pyridin-3-yloxy)ethan-1-amine]?
In vivo activity ED50 [10]: ED50 (mg/kg) = 15 (mouse tail-flick test) [24]; Ki ([6]; ref 23): 32.6 nM; Ki ([6]; ref 24): 24 nM

Which results are given for `CN(C)CCOc1cncc(N2CCNCC2)c1` [Compound 20a, N,N-dimethyl-2-{[5-(piperazin-1-yl)pyridin-3-yl]oxy}ethanamine]?
Ki [1]: > 1000 nM; fold lower α4β2* affinity in comparison with compound 17a [2]: about 770 fold; Measured activity scale [2]: +++ (highly active +++, Ki < 150 nM)
